Experimental data taken from paper PMC3773398, “The Subcellular Localization of the Receptor for Platelet-Activating Factor in Neutrophils Affects Signaling and Activation Characteristics” (Clinical and Developmental Immunology, 2013).

Experiments:
[1] = target: T1, PAFR (receptor for platelet-activating factor) (Homo sapiens, UniProt P25105); assay: antagonism of PAF ([…])-induced superoxide release in human neutrophils; format: cell-based
T1 construct: gene PTAFR

[2] = target: T1, PAFR (receptor for platelet-activating factor); assay: agonist-induced superoxide release (isoluminol chemiluminescence) in human neutrophils, abolished by PAFR antagonist WEB2086; Ca2+ mobilization EC50 […]; format: cell-based

T1 sequence (P25105 whole entry): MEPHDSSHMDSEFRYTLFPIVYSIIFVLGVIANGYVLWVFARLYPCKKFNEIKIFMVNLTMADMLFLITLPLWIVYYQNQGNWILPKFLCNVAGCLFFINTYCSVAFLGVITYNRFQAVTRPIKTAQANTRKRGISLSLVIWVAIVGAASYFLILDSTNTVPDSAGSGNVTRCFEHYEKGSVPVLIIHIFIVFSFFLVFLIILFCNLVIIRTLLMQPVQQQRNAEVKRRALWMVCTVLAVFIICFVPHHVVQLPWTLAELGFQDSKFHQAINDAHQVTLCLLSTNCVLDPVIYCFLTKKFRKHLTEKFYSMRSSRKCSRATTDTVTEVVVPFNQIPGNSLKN

SMILES	antagonism of PAF (100 nM)-induced superoxide release in human neutrophils [1]	EC50 [2] [nM]
Cc1nnc2n1-c1sc(CCC(=O)N3CCOCC3)cc1C(c1ccccc1Cl)=NC2 [WEB2086]	a specific PAFR antagonist (WEB2086) completely and selectively abolished the release of ROS upon PAF stimulation	
CCCCCCCCCCCCCCCCOC[C@H](COP(=O)([O-])OCC[N+](C)(C)C)OC(C)=O [PAF]		~800
